Test results: patent US20040096498A1, “Oral pharmaceutical delivery system with improved sustained release” (priority 2002, published 2004)

Assay: Single oral dose pharmacokinetic study in dogs, varying the testosterone dose (Example 1)
Format: in vivo, dogs (female beagles)
Conditions: for Average Serum Testosterone / concentration at 0.5 h / concentration at 1 h / concentration at 2 h / concentration at 4 h / concentration at 5 h / concentration at 6 h / concentration at 8 h / concentration at 24 h: single oral; for Average Serum Testosterone: time 0 h (pre-dose); for Sustained release time, Lipid Suspension Time: time serum levels fell between about 300 and 1100 ng/dl; for concentration at 0.5 h / concentration at 1 h / concentration at 2 h / concentration at 4 h / concentration at 5 h / concentration at 6 h / concentration at 8 h / concentration at 24 h: female, beagle, dog, serum
Experimental: A study using six dogs (female beagles) was made to obtain preliminary pharmacokinetic data following a single oral dose of the delivery system. The dogs were 13-24 months old, and weighed in the range of 10.4 to 13.2 kg.
The dosing was done in four sequential one day intervals with a minimum two day rest period in between each interval. Blood was drawn immediately before the dose was administered. […] The animals were given the placebo or test article, as described above, at approximately the same time each day, immediately prior to being fed. The dog ate its food within 30 minutes of the dose being administered.
Blood samples were collected pre-dose and at 0.5, 1, 2, 4, 5, 6, 8 and 24 hours post dosing. At each time point, a minimum of 3 mL whole blood (or minimum volume determined by assay requirement) were collected by venipuncture of the jugular vein into non-heparinized Vacutainer tubes. The blood was centrifuged to obtain serum, which was kept on ice until placed into an appropriately sized vial, and frozen at −70° C. The samples remained frozen until delivered on dry ice to the lab for analysis. The lab used radioimmunoassay to analyse for testosterone.
Determining the sustained release properties of the samples in Example 1 by evaluating the amount of time the blood serum levels fell between about 300 and 1100 ng/dl, the sustained release times for Example 1 are given in Table 3. It is desirable to have release properties that are fairly constant with time. It is undesirable to have sharp peaks or drops in serum concentration of the drug.

SMILES: C[C@]12CC[C@H]3[C@@H](CCC4=CC(=O)CC[C@@]43C)[C@@H]1CC[C@@H]2O [Testosterone, testosterone]
- Average Serum Testosterone (dose 25 mg): 0 ng/dL
- Sustained release time, Lipid Suspension Time (dose 25 mg): 1 h
- Average Serum Testosterone (dose 50 mg): 1 ng/dL
- Sustained release time, Lipid Suspension Time (dose 50 mg): 0 h
- Average Serum Testosterone (dose 100 mg): 0 ng/dL
- Sustained release time, Lipid Suspension Time (dose 100 mg): 7 h
- Average Serum Testosterone (dose 250 mg): 26 ng/dL
- Sustained release time, Lipid Suspension Time (dose 250 mg): 7 h
- concentration at 0.5 h (dose 25 mg): 2.86 ng/mL
- concentration at 1 h (dose 25 mg): 3.9 ng/mL
- concentration at 2 h (dose 25 mg): 4.25 ng/mL
- concentration at 4 h (dose 25 mg): 1.18 ng/mL
- concentration at 5 h (dose 25 mg): 0.35 ng/mL
- concentration at 6 h (dose 25 mg): 0.53 ng/mL
- concentration at 8 h (dose 25 mg): 0.23 ng/mL
- concentration at 24 h (dose 25 mg): 0.01 ng/mL
- concentration at 0.5 h (dose 50 mg): 1.54 ng/mL
- concentration at 1 h (dose 50 mg): 2.86 ng/mL
- concentration at 2 h (dose 50 mg): 3.76 ng/mL
- concentration at 4 h (dose 50 mg): 2.88 ng/mL
- concentration at 5 h (dose 50 mg): 2.15 ng/mL
- concentration at 6 h (dose 50 mg): 1.07 ng/mL
- concentration at 8 h (dose 50 mg): 0.54 ng/mL
- concentration at 24 h (dose 50 mg): 0.07 ng/mL
- concentration at 0.5 h (dose 100 mg): 2.7 ng/mL
- concentration at 1 h (dose 100 mg): 3.09 ng/mL
- concentration at 2 h (dose 100 mg): 4.5 ng/mL
- concentration at 4 h (dose 100 mg): 5.22 ng/mL
- concentration at 5 h (dose 100 mg): 6.18 ng/mL
- concentration at 6 h (dose 100 mg): 3.57 ng/mL
- concentration at 8 h (dose 100 mg): 4.22 ng/mL
- concentration at 24 h (dose 100 mg): 0.02 ng/mL
- concentration at 0.5 h (dose 250 mg): 2.64 ng/mL
- concentration at 1 h (dose 250 mg): 5.55 ng/mL
- concentration at 2 h (dose 250 mg): 8.35 ng/mL
- concentration at 4 h (dose 250 mg): 10.3 ng/mL
- concentration at 5 h (dose 250 mg): 8.29 ng/mL
- concentration at 6 h (dose 250 mg): 9.8 ng/mL
- concentration at 8 h (dose 250 mg): 7.57 ng/mL
- concentration at 24 h (dose 250 mg): 0.08 ng/mL
